# Experiments:
# [1] = Inhibition of His-Glu tagged recombinant human KIT Q694-T753 deletion mutant (565 to 935 residues) measured by spectrophotometric analysis
# [2] = system: NFS-60; experiment: cells; details: Mus musculus, NFS-60, 72 h
# Description: Antiproliferative activity against CSF1-treated mouse NFS-60 cells measured after 72 hrs by resazurin method
# [3] = cells; details: Homo sapiens, Osteoclast
# Description: Inhibition of RANKL-induced human osteoclast precursor cells differentiation in presence of human CSF1 and measured by tartrate-resistant acid phosphatase activity assay
# [4] = In vivo inhibition of CSF1R in CSF1-stimulated DBA/1 mouse assessed as modulation of cFOS mRNA at 7.5 mg/kg, po administered once daily for 6 days followed by CSF1 administration through intravenously and measured at 4 hrs by RT-PCR method; type: functional; details: DBA/1, 144 h, time 6 day
# [5] = Plasma concentration in DBA/1 mouse at 7.5 mg/kg, po administered once daily for 6 days and measured at 2 hrs; type: ADME, organism-based; details: time 6 day
# [6] = In vivo inhibition of CSF1R in CSF1-stimulated DBA/1 mouse assessed as modulation of cFOS mRNA at 7.5 mg/kg, po administered once daily for 6 days followed by CSF1 administration through intravenously and measured at 8 hrs by RT-PCR method; type: functional; details: DBA/1, 144 h, time 6 day
# [7] = Plasma concentration in DBA/1 mouse at 7.5 mg/kg, po administered once daily for 6 days and measured at 8 hrs; type: ADME, organism-based; details: time 6 day
# [8] = In vivo inhibition of CSF1R in CSF1-stimulated DBA/1 mouse assessed as modulation of cFOS mRNA at 7.5 mg/kg, po administered once daily for 6 days followed by CSF1 administration through intravenously and measured at 12 hrs by RT-PCR method; type: functional; details: DBA/1, 144 h, time 6 day
# [9] = In vivo inhibition of CSF1R in CSF1-stimulated DBA/1 mouse assessed as modulation of cFOS mRNA at 7.5 mg/kg, po administered once daily for 6 days followed by CSF1 administration through intravenously and measured at 18 hrs by RT-PCR method; type: functional; details: DBA/1, 144 h, time 6 day
# [10] = Plasma concentration in DBA/1 mouse at 7.5 mg/kg, po administered once daily for 6 days and measured at 4 hrs; type: ADME, organism-based; details: time 6 day
# [11] = Plasma concentration in DBA/1 mouse at 7.5 mg/kg, po administered once daily for 6 days and measured at 24 hrs; type: ADME, organism-based; details: time 6 day
# [12] = Plasma concentration in DBA/1 mouse at 7.5 mg/kg, po administered once daily for 6 days and measured at 6 hrs; type: ADME, organism-based; details: time 6 day
# [13] = Plasma concentration in DBA/1 mouse at 7.5 mg/kg, po administered once daily for 6 days and measured at 12 hrs; type: ADME, organism-based; details: time 6 day
# [14] = In vivo inhibition of CSF1R in CSF1-stimulated DBA/1 mouse assessed as modulation of cFOS mRNA at 7.5 mg/kg, po administered once daily for 6 days followed by CSF1 administration through intravenously and measured at 6 hrs by RT-PCR method; type: functional; details: DBA/1, 144 h, time 6 day
# [15] = In vivo inhibition of CSF1R in CSF1-stimulated DBA/1 mouse assessed as modulation of cFOS mRNA at 7.5 mg/kg, po administered once daily for 6 days followed by CSF1 administration through intravenously and measured at 24 hrs by RT-PCR method; type: functional; details: DBA/1, 144 h, time 6 day
# [16] = In vivo inhibition of CSF1R in CSF1-stimulated DBA/1 mouse assessed as modulation of cFOS mRNA at 7.5 mg/kg, po administered once daily for 6 days followed by CSF1 administration through intravenously and measured at 2 hrs by RT-PCR method; type: functional; details: DBA/1, 144 h, time 6 day
# [17] = Plasma concentration in DBA/1 mouse at 7.5 mg/kg, po administered once daily for 6 days and measured at 18 hrs; type: ADME, organism-based; details: time 6 day
SMILES,IC50 [1] [nM],IC50 [2] [nM],IC50 [3] [nM],also measured
CNc1ncc(-c2ccc(Oc3ccnc(-c4cnn(C)c4)c3)c(C)n2)c(=O)[nH]1,257,1300,–,–
CC(=O)Nc1cc(Oc2ccc(-c3cnc(NC(C)C)[nH]c3=O)nc2C)ccn1,277,193,–,–
Cc1nc(-c2cnc(N(C)C)[nH]c2=O)ccc1Oc1ccnc(-c2cnn(C)c2)c1,> 3300,716,17,–
CCNc1ncc(-c2ccc(Oc3ccnc(-c4cnn(C)c4)c3)cn2)c(=O)[nH]1,142,97,–,–
CCNc1ncc(-c2ccc(Oc3ccnc(-n4cnc(C)c4)c3)c(C)n2)c(=O)[nH]1,1300,2800,–,–
Cc1nc(-c2cnc(NC3CC3)[nH]c2=O)ccc1Oc1ccnc(-c2cnn(C)c2)c1,> 3300,55,16,–
FC(F)(F)c1ccc(CNc2ccc(Cc3c[nH]c4ncc(Cl)cc34)cn2)cn1 [PEXIDARTINIB],–,33,–,–
Cc1nc(-c2cnc(NC(C)C)[nH]c2=O)ccc1Oc1ccnc(-c2cnn(C)c2)c1,322,3.1,13,inhibition in vivo at 7.5 mg/kg [4]: 55%; concentration at 144 h [5]: 696 ng/mL; inhibition in vivo at 7.5 mg/kg [6]: 47%; concentration at 144 h [7]: 360 ng/mL; inhibition in vivo at 7.5 mg/kg [8]: 14%; inhibition in vivo at 7.5 mg/kg [9]: 11%; concentration at 144 h [10]: 563 ng/mL; concentration at 144 h [11]: 17 ng/mL; concentration at 144 h [12]: 451 ng/mL; concentration at 144 h [13]: 20 ng/mL; inhibition in vivo at 7.5 mg/kg [14]: 22%; inhibition in vivo at 7.5 mg/kg [15]: 16%; inhibition in vivo at 7.5 mg/kg [16]: 36%; concentration at 144 h [17]: 21 ng/mL
CCNc1ncc(-c2ccc(Oc3ccnc(-c4cnn(C)c4)c3)c(C)n2)c(=O)[nH]1,2100,45,18,–
CCn1cc(-c2cc(Oc3ccc(-c4cnc(NC(C)C)[nH]c4=O)nc3C)ccn2)cn1,2000,13,–,–
Cc1nc(-c2cnc(NC3CC3)n(C)c2=O)ccc1Oc1ccnc(-c2cnn(C)c2)c1,1700,18,7.4,–
